Here are results for 32 compounds from US8778964B2, “Hydroxy-substituted imidazo[1,2-a]-pyridinecarboxamides and their use” (Bayer Pharma Aktiengesellschaft, priority 2012, dated 2014).

For orientation: minimal effective concentration means the lowest level tested that produced the effect sought.

The test system of this experiment is recombinant guanylate cyclase reporter cell line. In words: Action on recombinant guanylate cyclase reporter cell line (MEC). In kind it is cell-based. To be noted: in some cases mean values obtained from individual determinations. Here is the method: B-2. Action on Recombinant Guanylate Cyclase Reporter Cell Line
The cellular action of the compounds according to the invention is determined on a recombinant guanylate cyclase reporter cell line, as described in F. Wunder et al., Anal. Biochem. 339, 104-112 (2005).
Representative values (MEC=minimal effective concentration) for the compounds according to the invention are shown in the following table (in some cases as mean values obtained from individual determinations): […]

In the case of `CCCCC(NC(=O)c1c(C)nc2c(OC(C)c3c(F)cccc3F)cc(C)cn12)C(C)(C)O` (single isomer, unassigned; ent-8) [Example 171, ent-8-[1-(2,6-Difluorophenyl)ethoxy]-N-(2-hydroxy-2-methylheptan-3-yl)-2,6-dimethylimidazo-[1,2-a]pyridine-3-carboxamide], the minimal effective concentration amounted to 1 µM.

Consider `CCCC[C@H](CO)NC(=O)c1c(C)nc2c(OCc3c(F)cccc3F)cccn12` [Example 1, 8-[(2,6-Difluorobenzyl)oxy]-N-[(2R)-1-hydroxyhexan-2-yl]-2-methylimidazo[1,2-a]pyridine-3-carboxamide], for which the minimal effective concentration is 0.05 µM.

As to `CCCC[C@H](CO)NC(=O)c1c(C)nc2c(OCc3c(F)ccc(F)c3F)cccn12` [Example 2, N-[(2R)-1-hydroxyhexan-2-yl]-2-methyl-8-[(2,3,6-trifluorobenzyl)oxy]imidazo[1,2-a]pyridine-3-carboxamide], the minimal effective concentration worked out at 0.03 µM.

As for `CCCC[C@H](CO)NC(=O)c1c(C)nc2c(OCc3c(F)cccc3Cl)cccn12` [Example 3, 8-[(2-chloro-6-fluorobenzyl)oxy]-N-[(2R)-1-hydroxyhexan-2-yl]-2-methylimidazo[1,2-a]pyridine-3-carboxamide], the minimal effective concentration came out at 0.1 µM.

As to `CCCC[C@H](CO)NC(=O)c1c(C)nc2c(OCc3ccccc3Cl)cccn12` [Example 4, 8-[(2-chlorobenzyl)oxy]-N-[(2R)-1-hydroxyhexan-2-yl]-2-methylimidazo[1,2-a]pyridine-3-carboxamide], the minimal effective concentration was determined as 0.1 µM.

For the compound `CCCC[C@H](CO)NC(=O)c1c(C)nc2c(OCc3ccccc3F)cccn12` [Example 5, 8-[(2-fluorobenzyl)-oxy]-N-[(2R)-1-hydroxyhexan-2-yl]-2-methylimidazo[1,2-a]pyridine-3-carboxamide], the minimal effective concentration was found to be 0.1 µM.

For `CCCC[C@H](CO)NC(=O)c1c(C)nc2c(OCc3cccc(F)c3)cccn12` [Example 6, 8-[(3-fluorobenzyl)-oxy]-N-[(2R)-1-hydroxyhexan-2-yl]-2-methylimidazo[1,2-a]pyridine-3-carboxamide], the minimal effective concentration came to 0.1 µM.

With `CCCC[C@H](CO)NC(=O)c1c(C)nc2c(OCc3c(F)c(F)cc(F)c3F)cccn12` [Example 7, N-[(2R)-1-hydroxyhexan-2-yl]-2-methyl-8-[(2,3,5,6-tetrafluorobenzyl)oxy]imidazo[1,2-a]pyridine-3-carboxamide], the minimal effective concentration came to 0.3 µM.

As for `CCCC[C@H](CO)NC(=O)c1c(C)nc2c(OCc3c(Cl)cccc3Cl)cccn12` [Example 8, 8-[(2,6-dichlorobenzyl)oxy]-N-[(2R)-1-hydroxyhexan-2-yl]-2-methylimidazo[1,2-a]pyridine-3-carboxamide], the minimal effective concentration came out at 0.3 µM.

On to `CCCC[C@H](CO)NC(=O)c1c(C)nc2c(OCc3cccc(Cl)c3Cl)cccn12` [Example 9, 8-[(2,3-dichlorobenzyl)oxy]-N-[(2R)-1-hydroxy-hexan-2-yl]-2-methylimidazo[1,2-a]pyridine-3-carboxamide], for which the minimal effective concentration came out at 0.5 µM.

As for `CCCC[C@H](CO)NC(=O)c1c(C)nc2c(OCc3cccc(F)c3F)cccn12` [Example 10, 8-[(2,3-difluorobenzyl)oxy]-N-[(2R)-1-hydroxyhexan-2-yl]-2-methylimidazo[1,2-a]pyridine-3-carboxamide], the minimal effective concentration was 0.3 µM.

With `CCCC[C@H](CO)NC(=O)c1c(C)nc2c(OCc3cccc(C)c3F)cccn12` [Example 11, 8-[(2-fluoro-3-methylbenzyl)oxy]-N-[(2R)-1-hydroxyhexan-2-yl]-2-methylimidazo[1,2-a]pyridine-3-carboxamide], the minimal effective concentration amounted to 1.5 µM.

For `CCCC[C@H](CO)NC(=O)c1c(C)nc2c(OCc3cccc4c3OC(F)(F)O4)cccn12` [Example 12, 8-[(2,2-difluoro-1,3-benzodioxol-4-yl)methoxy]-N-[(2R)-1-hydroxyhexan-2-yl]-2-methylimidazo[1,2-a]-pyridine-3-carboxamide], the minimal effective concentration is 3 µM.

For the compound `CCCC[C@H](CO)NC(=O)c1c(C)nc2c(OCc3c(C)cccc3C)cccn12` [Example 13, 8-[(2,6-dimethylbenzyl)oxy]-N-[(2R)-1-hydroxyhexan-2-yl]-2-methylimidazo[1,2-a]pyridine-3-carboxamide], the minimal effective concentration amounted to 3 µM.

For the compound `CCCC[C@H](CO)NC(=O)c1c(C)nc2c(OCc3cccc(C(F)(F)F)c3F)cccn12` [Example 14, 8-{[2-fluoro-3-(trifluoromethyl)benzyl]oxy}-N-[(2R)-1-hydroxyhexan-2-yl]-2-methylimidazo[1,2-a]-pyridine-3-carboxamide], the minimal effective concentration is 3 µM.

Consider `CCCC[C@H](CO)NC(=O)c1c(C)nc2c(OCc3c(F)cc(F)cc3F)cccn12` [Example 15, N-[(2R)-1-Hydroxyhexan-2-yl]-2-methyl-8-[(2,4,6-trifluorobenzyl)oxy]imidazo[1,2-a]pyridine-3-carboxamide], for which the minimal effective concentration amounted to 0.1 µM.

Turning to `CCCC[C@H](CO)NC(=O)c1c(C)nc2c(OCc3ccccc3)cccn12` [Example 16, 8-(Benzyloxy)-N-[(2R)-1-hydroxyhexan-2-yl]-2-methylimidazo[1,2-a]pyridine-3-carboxamide], the minimal effective concentration worked out at 1 µM.

Take `CC[C@H](CO)NC(=O)c1c(C)nc2c(OCc3ccccc3)cccn12` [Example 17, 8-(Benzyloxy)-N-[(2R)-1-hydroxybutan-2-yl]-2-methylimidazo[1,2-a]pyridine-3-carboxamide]: the minimal effective concentration worked out at 3 µM.

As to `CCC[C@H](CO)NC(=O)c1c(C)nc2c(OCc3c(F)cccc3F)cccn12` [Example 18, 8-[(2,6-difluorobenzyl)oxy]-N-[(2R)-1-hydroxy-pentan-2-yl]-2-methylimidazo[1,2-a]pyridine-3-carboxamide], the minimal effective concentration came out at 0.1 µM.

With `Cc1nc2c(OCc3c(F)cccc3F)cccn2c1C(=O)N[C@H]1CCC[C@@H]1O` [Example 19, 8-[(2,6-difluorobenzyl)oxy]-N-[(1S,2S)-2-hydroxycyclopentyl]-2-methylimidazo[1,2-a]-pyridine-3-carboxamide], the minimal effective concentration was 1 µM.

For `Cc1nc2c(OCc3c(F)cccc3F)cccn2c1C(=O)NC(C)(C)[C@H](C)O` [Example 20, 8-[(2,6-difluorobenzyl)oxy]-N-[(3S)-3-hydroxy-2-methylbutan-2-yl]-2-methylimidazo[1,2-a]-pyridine-3-carboxamide], the minimal effective concentration came out at 1 µM.

As to `Cc1nc2c(OCc3c(F)cccc3F)cccn2c1C(=O)NCCO` [Example 21, 8-[(2,6-difluorobenzyl)oxy]-N-(2-hydroxyethyl)-2-methylimidazo[1,2-a]pyridine-3-carboxamide], the minimal effective concentration was 1 µM.

For the compound `Cc1nc2c(OCc3c(F)cccc3F)cccn2c1C(=O)NCCCO` [Example 22, 8-[(2,6-difluorobenzyl)oxy]-N-(3-hydroxy-propyl)-2-methylimidazo[1,2-a]pyridine-3-carboxamide], the minimal effective concentration worked out at 1 µM.

Take `Cc1nc2c(OCc3c(F)cccc3F)cccn2c1C(=O)NCCCCO` [Example 23, 8-[(2,6-difluorobenzyl)oxy]-N-(4-hydroxybutyl)-2-methylimidazo[1,2-a]pyridine-3-carboxamide]: the minimal effective concentration turned out to be 0.3 µM.

`Cc1nc2c(OCc3c(F)cccc3F)cccn2c1C(=O)NCCOCCO` [Example 24, 8-[(2,6-difluorobenzyl)oxy]-N-[2-(2-hydroxy-ethoxy)ethyl]-2-methylimidazo[1,2-a]pyridine-3-carboxamide]: the minimal effective concentration amounted to 1 µM.

Regarding `CSCC[C@H](CO)NC(=O)c1c(C)nc2c(OCc3c(F)cccc3F)cccn12` [Example 25, 8-[(2,6-difluorobenzyl)oxy]-N-[(2R)-1-hydroxy-4-(methylsulphanyl)butan-2-yl]-2-methyl-imidazo[1,2-a]pyridine-3-carboxamide], the minimal effective concentration amounted to 0.1 µM.

Take `Cc1nc2c(OCc3c(F)cccc3F)cccn2c1C(=O)NC(CO)CO` [Example 26, 8-[(2,6-difluorobenzyl)oxy]-N-(1,3-dihydroxy-propan-2-yl)-2-methylimidazo[1,2-a]pyridine-3-carboxamide]: the minimal effective concentration is 2 µM.

With `Cc1nc2c(OCc3c(F)cccc3F)cccn2c1C(=O)N[C@@H](CO)C(C)C` [Example 29, 8-[(2,6-difluorobenzyl)oxy]-N-[(2R)-1-hydroxy-3-methylbutan-2-yl]-2-methylimidazo[1,2-a]-pyridine-3-carboxamide], the minimal effective concentration was 0.1 µM.

With `Cc1nc2c(OCc3c(F)cccc3F)cccn2c1C(=O)NC1(CO)CCCC1` [Example 31, 8-[(2,6-difluorobenzyl)oxy]-N-[1-(hydroxymethyl)cyclopentyl]-2-methylimidazo[1,2-a]pyridine-3-carboxamide], the minimal effective concentration came out at 1 µM.

`Cc1nc2c(OCc3c(F)cccc3F)cccn2c1C(=O)NC[C@@H](O)c1ccccc1` [Example 32, 8-[(2,6-difluorobenzyl)oxy]-N-[(2S)-2-hydroxy-2-phenylethyl]-2-methylimidazo[1,2-a]pyridine-3-carboxamide]: the minimal effective concentration was determined as 1 µM.

Take `Cc1nc2c(OCc3c(F)cccc3F)cccn2c1C(=O)NC[C@H](O)c1ccccc1` [Example 33, 8-[(2,6-difluorobenzyl)oxy]-N-[(2R)-2-hydroxy-2-phenylethyl]-2-methylimidazo[1,2-a]pyridine-3-carboxamide]: the minimal effective concentration stood at 0.3 µM.

Regarding `Cc1nc2c(OCc3c(F)cccc3F)cccn2c1C(=O)NC(C)(C)CO` [Example 34, 8-[(2,6-difluorobenzyl)oxy]-N-(1-hydroxy-2-methylpropan-2-yl)-2-methylimidazo[1,2-a]-pyridine-3-carboxamide], the minimal effective concentration turned out to be 0.3 µM.
